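Five compound concentrations were applied to cells in 96-well plates for 48 hours; endpoints were derived by simple linear interpolation of the resulting dose-response curve. At the GI50, growth is halved.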 Calls of active or inactive are those of the source. No stated cut-off is given here; in the data, active = GI50 up to about 1.1 µM and inactive = higher.
Tests used:
Assay in all cases: NCI tumour cell line growth inhibition, 48 h
OVCAR-4 = system: OVCAR-4
HOP-92 = system: HOP-92
HCT-116 = system: HCT-116
A498 = system: A498
Malme-3M = system: Malme-3M
CAKI-1 = system: CAKI-1
RPMI-8226 = system: RPMI-8226
HCC 2998 = system: HCC 2998
SF-268 = system: SF-268
M14 = system: M14
IGROV-1 = system: IGROV-1
NCI-H460 = system: NCI-H460
DU-145 = system: DU-145
SF-539 = system: SF-539
BT-549 = system: BT-549
HCT-15 = system: HCT-15
ACHN = system: ACHN
SNB-19 = system: SNB-19
NCI-H23 = system: NCI-H23
NCI-H226 = system: NCI-H226

SMILES | GI50 (OVCAR-4) | GI50 (HOP-92) | GI50 (HCT-116) | GI50 (A498) | GI50 (Malme-3M) | GI50 (CAKI-1) | GI50 (RPMI-8226) | GI50 (HCC 2998) | GI50 (SF-268) | GI50 (M14) | GI50 (IGROV-1) | GI50 (NCI-H460) | GI50 (DU-145) | GI50 (SF-539) | GI50 (BT-549) | GI50 (HCT-15) [µM] | GI50 (ACHN) | GI50 (SNB-19) | GI50 (NCI-H23) | GI50 (NCI-H226)
[C-]#[N+]C(=C\c1ccc(O)cc1)/C(=C/c1ccc(O)cc1)[N+]#[C-] [XANTOCILLIN] | 3.19 µM (inactive) | 2.9 µM (inactive) | 0.6 µM (active) | 3.06 µM (inactive) | 0.871 µM (active) | 2.25 µM (inactive) | 4.39 µM (inactive) | 3.49 µM (inactive) | 2.96 µM (inactive) | 2.28 µM (inactive) | 2.13 µM (inactive) | 2.42 µM (inactive) | 2.53 µM (inactive) | 2.97 µM (inactive) | 2.41 µM (inactive) | 1.45 | 2.03 µM (inactive) | 2.55 µM (inactive) | 2.31 µM (inactive) | 2.37 µM (inactive)
CC(C)(C)OC(=O)N(O)[C@@H]1C=C[C@H](n2cnc3c(N)ncnc32)C1 | > 100 µM (inactive) | > 100 µM (inactive) | > 100 µM (inactive) | > 100 µM (inactive) | > 100 µM (inactive) | > 100 µM (inactive) | > 100 µM (inactive) | > 100 µM (inactive) | > 100 µM (inactive) | > 100 µM (inactive) | 59 µM (inactive) | > 100 µM (inactive) | > 100 µM (inactive) | > 100 µM (inactive) | > 100 µM (inactive) | > 100 | > 100 µM (inactive) | > 100 µM (inactive) | > 100 µM (inactive) | 26.5 µM (inactive)
COc1cccc2c1CCc1cc3c(N)nc(N)nc3nc1-2 | 6.22 µM (inactive) | 14 µM (inactive) | 2.55 µM (inactive) | 9.27 µM (inactive) | 5.14 µM (inactive) | 5.45 µM (inactive) | 2.12 µM (inactive) | 2.29 µM (inactive) | 6.73 µM (inactive) | 4.22 µM (inactive) | 5.86 µM (inactive) | 4.83 µM (inactive) | 5.16 µM (inactive) | 1.79 µM (inactive) | 26.4 µM (inactive) | 5.21 | 5.75 µM (inactive) | 5.45 µM (inactive) | 5.06 µM (inactive) | 12.6 µM (inactive)
COc1cc(-c2c(C#N)c(N)c(C#N)c3c2COc2ccccc2-3)cc(OC)c1OC | > 22.8 µM (inactive) | 16.9 µM (inactive) | > 49.4 µM (inactive) | 39.3 µM (inactive) | 20.3 µM (inactive) | 53.1 µM (inactive) | > 22.9 µM (inactive) | 16.6 µM (inactive) | 11.5 µM (inactive) | > 100 µM (inactive) | 26.7 µM (inactive) | > 77.3 µM (inactive) | 43.4 µM (inactive) | 5.35 µM (inactive) | 31.6 µM (inactive) | > 100 | 27.8 µM (inactive) | 13.2 µM (inactive) | 31.6 µM (inactive) | 6.92 µM (inactive)
COc1ccc(/C(=N/OCCCC(=O)O)c2cccs2)cc1 | > 100 µM (inactive) | > 100 µM (inactive) | > 100 µM (inactive) | > 100 µM (inactive) | > 100 µM (inactive) | > 100 µM (inactive) | > 100 µM (inactive) | > 100 µM (inactive) | > 100 µM (inactive) | – | – | > 100 µM (inactive) | > 100 µM (inactive) | > 100 µM (inactive) | > 100 µM (inactive) | > 100 | > 100 µM (inactive) | > 100 µM (inactive) | > 100 µM (inactive) | > 100 µM (inactive)
C[C@@]12C[C@@H](c3ccccc3O1)N1Cc3ccccc3CSC1=N2 | 66.1 µM (inactive) | > 100 µM (inactive) | 49.7 µM (inactive) | > 100 µM (inactive) | 79.8 µM (inactive) | > 100 µM (inactive) | > 100 µM (inactive) | 33.3 µM (inactive) | > 100 µM (inactive) | 90.4 µM (inactive) | > 100 µM (inactive) | 42.8 µM (inactive) | 69.3 µM (inactive) | 51.5 µM (inactive) | 95.9 µM (inactive) | 37.3 | > 100 µM (inactive) | > 100 µM (inactive) | > 100 µM (inactive) | > 100 µM (inactive)
Cn1cc(-c2cnc(-c3cn(C)c4ccccc34)cn2)c2ccccc21 | 11.6 µM (inactive) | 12.9 µM (inactive) | 3.4 µM (inactive) | 4.69 µM (inactive) | 5.11 µM (inactive) | 6.67 µM (inactive) | 4.98 µM (inactive) | 5.61 µM (inactive) | 5.48 µM (inactive) | 3.47 µM (inactive) | 3.8 µM (inactive) | 4.51 µM (inactive) | 5.27 µM (inactive) | 3.37 µM (inactive) | 14.1 µM (inactive) | 0.187 | 5.83 µM (inactive) | 4.71 µM (inactive) | 4.25 µM (inactive) | 6.31 µM (inactive)

Reference: ChEMBL document CHEMBL1201862, “PubChem BioAssay data set” (2004)
